Test results taken from article PMC5929572, “Nucleobases and corresponding nucleosides display potent antiviral activities against dengue virus possibly through viral lethal mutagenesis” (PLoS Neglected Tropical Diseases, 2018).

How the values were obtained:
[1] = Cell viability assay (MTS) in DENV replicon cells; assay type: cell-based, baby hamster; settings: hamster, DENV replicon cells (BHK pD2-hRucPac-2ATG30), DENV replicon BHK cells, MTS, 72 h
DENV-2 [2] = assay: Virus passage in presence of compound, supernatant titer by plaque assay; assay type: cell-based, DENV-2 New Guinea C strain; settings: 3b 500 μM, Huh-7, passages 4 and 5; limit of detection 3.3 pfu/mL
Description: Huh-7 cells were seeded in 12-well plates at a density of 4×10^5 cells per well in 1 mL culture medium. The next day, cells were washed and inoculated with DENV at a multiplicity of infection (m.o.i.) of 0.2 in 500μl infection medium (MEM containing 2% FBS and 10 mM HEPES). The inoculum was removed after 1h, cells were washed with PBS and then incubated in 1 mL MEM, 2% FBS, 1% pen/strep plus compound for 72 h. Viral supernatants were clarified by centrifugation for 5 min at 1500×g and aliquoted and stored at -80°C. Viral titers were determined using a plaque assay on Vero cells. Briefly, confluent Vero cell monolayers in 24-well plates were incubated at 37°C for 1 h with duplicate 300 μl samples of 10-fold serial dilutions of viral supernatants. The cells were then washed to remove unbound viral particles and overlaid with 500ul MEM containing 1.3% methylcellulose, 5% FBS and 10mM HEPES. […] Infectious virus titer (pfu/mL) was determined using the following formula: number of plaques × dilution factor × (1/inoculation volume). […]
(§1) Virus was passaged on Huh-7 cells supplemented with 200 μM 3a, 500 μM 3b or DMSO (0.5%). […] The virus titer in the harvested supernatant was determined by plating ten-fold serial dilutions onto single wells of a 24-well plate. […] Supernatant titer was determined from a single well where there were approximately 20–50 plaques when possible. […]

DENV-2 [3] = assay: Virus passage in presence of compound, genome copy number by RT-qPCR (NS5); assay type: cell-based, DENV-2 New Guinea C strain; settings: 3b 500 μM, Huh-7, passage 5; limit of detection 30 copies
Description: For qPCR determination of viral genome copy number, viral RNA was isolated from 140 μL of drug-treated or DMSO-treated infected culture supernatant using QIAamp Viral RNA mini kit (Qiagen), following manufacturer’s protocol. Viral RNA was quantified using the TaqMan RNA-to-CT 1-Step qPCR Kit (Applied Biosystems). Primers used for qPCR were 5’-[…]-3’ (forward) and 5’-[…]-3’ (reverse) amplifying a region numbering 8928–8988 in the genome (numbering starting from the beginning of genome, accession number KM204118). The qPCR FAM probe sequence is 5’-[…]-3’. Serial 10-fold dilutions of plasmid containing the NS5 gene of DENV were used to generate a standard curve for the quantification of viral RNA genome copy number based on cycle threshold (CT) values. […] Sequences were aligned over a 980-base region that had adequate quality sequencing reads for all clones. Only mutations present in both the forward and reverse reads of a clone were counted. All incidence-based determinants of mutation frequency (Mf min, Mf max, Mfe) were calculated as described.
as §1

DENV-2 [4] = assay: Titer reduction assay in Huh-7 cells, plaque assay on Vero cells; assay type: cell-based, DENV-2 New Guinea C strain; settings: Dengue virus, DENV2, m.o.i. 0.2, 72 h
Description: Huh-7 cells were seeded in 12-well plates at a density of 4×10^5 cells per well in 1 mL culture medium. The next day, cells were washed and inoculated with DENV at a multiplicity of infection (m.o.i.) of 0.2 in 500μl infection medium (MEM containing 2% FBS and 10 mM HEPES). The inoculum was removed after 1h, cells were washed with PBS and then incubated in 1 mL MEM, 2% FBS, 1% pen/strep plus compound for 72 h. Viral supernatants were clarified by centrifugation for 5 min at 1500×g and aliquoted and stored at -80°C. Viral titers were determined using a plaque assay on Vero cells. Briefly, confluent Vero cell monolayers in 24-well plates were incubated at 37°C for 1 h with duplicate 300 μl samples of 10-fold serial dilutions of viral supernatants. The cells were then washed to remove unbound viral particles and overlaid with 500ul MEM containing 1.3% methylcellulose, 5% FBS and 10mM HEPES. After 5 days of incubation at 37°C and 5% CO2, cells were washed with PBS, fixed, and stained using 1% Giemsa. Infectious virus titer (pfu/mL) was determined using the following formula: number of plaques × dilution factor × (1/inoculation volume). The viral titer was presented as the mean of duplicate samples from a dilution yielding approximately 20–50 plaques per well.

DENV-2 [5] = assay: Sequence analysis of prM/E region clones from passaged virus (mutation frequency); assay type: cell-based, DENV-2 New Guinea C strain
Description: For qPCR determination of viral genome copy number, viral RNA was isolated from 140 μL of drug-treated or DMSO-treated infected culture supernatant using QIAamp Viral RNA mini kit (Qiagen), following manufacturer’s protocol. Viral RNA was quantified using the TaqMan RNA-to-CT 1-Step qPCR Kit (Applied Biosystems). Primers used for qPCR were 5’-[…]-3’ (forward) and 5’-[…]-3’ (reverse) amplifying a region numbering 8928–8988 in the genome (numbering starting from the beginning of genome, accession number KM204118). The qPCR FAM probe sequence is 5’-[…]-3’. Serial 10-fold dilutions of plasmid containing the NS5 gene of DENV were used to generate a standard curve for the quantification of viral RNA genome copy number based on cycle threshold (CT) values. The limit of detection for NS5 plasmid dilutions was 30 copies (S1 Fig). […] Statistical analysis via GraphPad Prism 5 software. To obtain sequence data from viral RNA isolated at each passage, cDNA was generated via M-MLV reverse transcriptase and random hexamers (New England Biolab Inc.) per manufacturer’s instructions. An approximately 1600-base fragment covering membrane protein (prM) and envelop protein gene (E) of DENV-2 viral genome was amplified using PfuUltra II Fusion HS DNA polymerase (Agilent) with primers prMEfor (5'- […]-3') and prMErev (5'- […] -3'). PCR products were purified using Qiaquick PCR purification kit (Qiagen) and then digested with EcoRI and ligated into pcDNA3.1 for sequencing. Sequence for approximately 40–50 individual clones per sample was obtained from the University of Minnesota Genomics Center. Sequences were aligned over a 980-base region that had adequate quality sequencing reads for all clones. Only mutations present in both the forward and reverse reads of a clone were counted. All incidence-based determinants of mutation frequency (Mf min, Mf max, Mfe) were calculated as described.
Virus was passaged on Huh-7 cells supplemented with 200 μM 3a, 500 μM 3b or DMSO (0.5%). Huh-7 cells were seeded in 12-well plates and inoculated with DENV-2 as described for Titer reduction experiments above except an m.o.i. of 0.01 was used. After 3 days of compound treatment, 50 μL of the harvested supernatant was used to inoculate fresh Huh-7 cells in the continued presence of compound. The virus titer in the harvested supernatant was determined by plating ten-fold serial dilutions onto single wells of a 24-well plate. The wells were washed and overlaid as described in the Titer reduction assay above. If no plaques were obtained in any of the harvested supernatant dilutions, the undiluted supernatant was used. If plaques were not detectable, the virus titer was considered to be at the limit of detection, 1 plaque (3.3 pfu/mL). Supernatant titer was determined from a single well where there were approximately 20–50 plaques when possible. This experiment was repeated three times at the compound concentrations listed.

[6] = Cell viability assay (MTS) in Huh-7 cells; assay type: cell-based; settings: human
Description: The sensitivity of the cell lines to the compounds was examined using the 3-(4,5-dimethylthiazol-2-yl)-5-(3-carboxymethoxyphenyl)-2-(4-sulfophenyl)-2H-tetrazolium (MTS)-based tetrazolium reduction CellTiter 96 Aqueous Non-Radioactive cell proliferation assay (Promega G5430). The compounds were initially tested at 10 and 50 μM final concentrations. Each plate also contained DMSO alone, medium alone, and an inhibitory compound, 6. DENV replicon or Huh-7 cells were plated at a density of 1,500 or 8 × 10^3 cells, respectively, per well in 96-well plates containing 100 μl of culture medium overnight. Compounds were added to triplicate wells in culture medium and incubated for an additional 72 h. MTS reagent was then added to each well and incubated at 37°C in a humidified 5% CO2 atmosphere. The plates were read at various time points at a wavelength of 490 nm using a Molecular Devices M5e plate reader. Mean values of triplicate wells were determined and compared to the mean value for the wells that received DMSO alone. For compounds selected for dose-response experiments, the CC50 was determined by comparing cell viability for eight serial dilutions of the compound and DMSO treated cells using GraphPad Prism software.

[7] = passage 2, 3a 200 μM, 3b 500 μM, Huh-7
[8] = passage 3, 3a 200 μM, 3b 500 μM, Huh-7

NC(=O)c1nccn([C@@H]2O[C@H](CO)[C@@H](O)[C@H]2O)c1=O [Compound 3b]
CC50 at 72 h [1]: > 1 mM | infectious virus in supernatant (DENV-2 [2]): undetectable | genomic RNA in supernatant (DENV-2 [3]): undetectable | EC50 (DENV-2 [4]): 60 ± 22 µM | number of mutations per clone compared to DMSO (DENV-2 [5]; 3a 200 μM passage 4, 3b 500 μM passage 3, p < 0.0001, Mann-Whitney U): significant difference | Mf max (maximum mutation frequency) (DENV-2 [5]; [7]): 15.3 per 10,000 nucleotides | Mf min (minimum mutation frequency) (DENV-2 [5]; [7]): 10.7 per 10,000 nucleotides | Mfe (entity level mutation frequency) (DENV-2 [5]; [7]): 2.4 ×10^−3 | Number of clones with mutation/total (DENV-2 [5]; [7]): 22/34 | Number of different mutations (DENV-2 [5]; [7]): 33 | Number of haplotypes (DENV-2 [5]; [7]): 22 | Number of total mutations (DENV-2 [5]; [7]): 47 | Transition A→G, number of mutations (DENV-2 [5]; [7]): 6 | Transition C→U, number of mutations (DENV-2 [5]; [7]): 4 | Transition G→A, number of mutations (DENV-2 [5]; [7]): 6 | Transition U→C, number of mutations (DENV-2 [5]; [7]): 14 | Transversion G→U, number of mutations (DENV-2 [5]; [7]): 2 | Transversion U→G, number of mutations (DENV-2 [5]; [7]): 1 | Mf max (maximum mutation frequency) (DENV-2 [5]; [8]): 15.8 per 10,000 nucleotides | Mf min (minimum mutation frequency) (DENV-2 [5]; [8]): 4.7 per 10,000 nucleotides | Mfe (entity level mutation frequency) (DENV-2 [5]; [8]): 2.2 ×10^−3 | Number of clones with mutation/total (DENV-2 [5]; [8]): 22/35 | Number of different mutations (DENV-2 [5]; [8]): 15 | Number of haplotypes (DENV-2 [5]; [8]): 17 | Number of total mutations (DENV-2 [5]; [8]): 50 | Transition A→G, number of mutations (DENV-2 [5]; [8]): 4 | Transition C→U, number of mutations (DENV-2 [5]; [8]): 6 | Transition G→A, number of mutations (DENV-2 [5]; [8]): 1 | Transition U→C, number of mutations (DENV-2 [5]; [8]): 3 | Transversion U→A, number of mutations (DENV-2 [5]; [8]): 1 | CC50 at 72 h [6]: > 1 mM
